Values quoted from earlier work as cited in article PMC12298827, “Subchronic Toxicities of Four Per- and Polyfluoroalkyl Substances (PFASs) by Oral Exposure in Sprague–Dawley Rats” (Toxics, 2025).

System: male and female rats
Details: cited from earlier work

Structure (SMILES) | Effect on liver weights or bodyweights (doses of up to 600 mg/kg-day, 90-day oral gavage, male or female rats ref 21) | Effect on absolute and relative liver weights (28- and 90-day oral gavage ref 16)
O=S(=O)(O)C(F)(F)C(F)(F)C(F)(F)C(F)(F)F [perfluorobutane sulfonate] | did not affect the liver weights or bodyweights | 
N.O=C(O)C(F)(F)C(F)(F)C(F)(F)F [ammonium perfluorobutyrate] |  | significant increases in the absolute and relative liver weights only in male rats
